# Read-outs that look alike come from different tables or passages of the source.
# What was measured:
# DNA polymerase = details: for peak height (red fluorescence on the gel): dUTP* only (Fr = 1.0) or dUTP*/named dUTP^0
# Description: A gel assay was also performed to examine context-dependent incorporation. […] The primers had different lengths poly-T tails to enable separation on a polyacrylamide gel. […] Excess nucleotides and nucleotide analogs were washed away and the sample was loaded onto a gel.
# The red fluorescence on the gel was analyzed with ImageJ. The peak heights for the extension reactions for each primer with Fr=1.0 was measured. […] The ratios of the peak heights for each pair were calculated (“norm.”). […] The metric in this experiment was context, as defined as: C=(Maximum signal−minimum signal)/(average signal).
# hairpin oligo = test: Kinetic assay using hairpin oligos (Example 7); format: biochemical
# Description: A kinetic assay using hairpin oligos was also performed to determine the rate of incorporate of an unnatural nucleotide and a natural nucleotide following the unnatural nucleotide. […] Incorporation of a T or U analog unquenched a fluorescein in the hairpin oligo. Following incorporation of the T or U analog, a mixture of C and A was added, which further unquenched the dye.
# Bst DNA polymerase = molecular target: T1, Bst DNA polymerase (Geobacillus stearothermophilus, UniProt P52026); test: Stepwise sequencing with TTP and E-dUTP, context metric (Example 8); format: biochemical; details: 0.05 fraction of dUTP*
# T1 sequence (P52026 1-876): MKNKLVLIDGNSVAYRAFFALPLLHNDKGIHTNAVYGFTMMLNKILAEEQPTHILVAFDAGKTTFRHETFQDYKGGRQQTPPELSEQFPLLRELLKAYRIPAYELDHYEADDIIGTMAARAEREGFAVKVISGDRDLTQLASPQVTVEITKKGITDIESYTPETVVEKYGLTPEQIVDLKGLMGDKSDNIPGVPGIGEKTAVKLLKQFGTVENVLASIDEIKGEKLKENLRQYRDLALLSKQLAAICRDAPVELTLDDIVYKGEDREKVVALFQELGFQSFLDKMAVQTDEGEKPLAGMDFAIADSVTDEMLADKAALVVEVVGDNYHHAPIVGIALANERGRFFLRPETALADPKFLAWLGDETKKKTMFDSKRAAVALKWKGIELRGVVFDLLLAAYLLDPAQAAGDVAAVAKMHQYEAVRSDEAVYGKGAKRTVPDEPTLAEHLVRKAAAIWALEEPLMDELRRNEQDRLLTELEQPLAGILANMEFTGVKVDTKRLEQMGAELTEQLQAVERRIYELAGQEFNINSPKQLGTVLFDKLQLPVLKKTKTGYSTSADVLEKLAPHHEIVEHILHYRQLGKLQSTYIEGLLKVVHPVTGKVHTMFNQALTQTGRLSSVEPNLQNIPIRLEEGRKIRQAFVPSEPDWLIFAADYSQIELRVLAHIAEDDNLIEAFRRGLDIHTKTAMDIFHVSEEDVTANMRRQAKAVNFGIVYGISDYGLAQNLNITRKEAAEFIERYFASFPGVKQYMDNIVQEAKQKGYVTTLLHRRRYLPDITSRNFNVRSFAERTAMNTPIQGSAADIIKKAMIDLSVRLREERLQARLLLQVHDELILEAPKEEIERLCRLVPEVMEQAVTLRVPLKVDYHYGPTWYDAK
# Excerpt: A microscope slide surface was modified with polyaminosilane to allow the attachment of 1 micron beads each containing one of three different oligonucleotide templates. To each template was bound an oligonucleotide primer and Bst DNA polymerase. Solutions of mixtures of labeled and unlabeled nucleotide, of one type at a time, were exposed to the surface, followed by a wash solution. The fluorescence of labeled beads was detected and quantitated. The fluorescence label was cleaved by treatment with tris(hydroxypropyl)phosphine (THP) after each step.
# Context was measured for each experiment. Context is given by the context metric, C, which is defined as the (maximum-minimum signal)/average signal.
structure (smiles),measurement,setting,value
"Cc1cn([C@H]2C[C@H](O)[C@@H](COP(=O)(O)OP(=O)(O)OP(=O)(O)O)O2)c(=O)[nH]c1=O [TTP, thymidine triphosphate, reference compound]",Norm. (ratio of peak height dUTP*/dUTP^0 to Fr=1.0),DNA polymerase; Peak 1,1.1
same,peak height (red fluorescence on the gel),DNA polymerase; Peak 1 (primer),48
same,Norm. (ratio of peak height dUTP*/dUTP^0 to Fr=1.0),DNA polymerase; Peak 2,1.4
same,peak height (red fluorescence on the gel),DNA polymerase; Peak 2 (primer),56
same,Norm. (ratio of peak height dUTP*/dUTP^0 to Fr=1.0),DNA polymerase; Peak 3,1.0
same,peak height (red fluorescence on the gel),DNA polymerase; Peak 3 (primer),25
same,Norm. (ratio of peak height dUTP*/dUTP^0 to Fr=1.0),DNA polymerase; Peak 4,1.2
same,peak height (red fluorescence on the gel),DNA polymerase; Peak 4 (primer),38
same,Norm. (ratio of peak height dUTP*/dUTP^0 to Fr=1.0),DNA polymerase; Peak 5,1.7
same,peak height (red fluorescence on the gel),DNA polymerase; Peak 5 (primer),38
same,context C=(Maximum signal−minimum signal)/(average signal),"DNA polymerase; five primers, gel assay with dUTP*",0.54
same,incorporation of dCTP and dATP after the dUTP analog,hairpin oligo; mixture of C and A added after T or U analog,rapid
same,initial incorporation of dUTP analog,hairpin oligo; unquenching of fluorescein in hairpin oligo,rapid
same,C (context metric),Bst DNA polymerase; Oligonucleotide template 1,0.86
same,C (context metric),Bst DNA polymerase; Oligonucleotide template 2,0.73
same,C (context metric),Bst DNA polymerase; Oligonucleotide template 3,0.71
